Data taken from patent US9738932B2, “Biomarkers for cardiovascular side-effects induced by cox-2 inhibitory compounds” (FIRALIS SAS, priority 2005, dated 2017).

System: mRNA expression in cardiovascular tissues
Conditions: cynomolgus monkey, in vivo
Experimental: Administration of compounds. A two-week oral-gavage treatment with the Cox-2 specific inhibitor COX189 (Lumiracoxib®, Novartis) in comparison with rofecoxib (Vioxx®, Merck), and celecoxib (Celebrex®, Pharmacia/Pfizer), and with the nonselective NSAID, diclofenac (Voltaren®, Novartis) was performed. […] The test items were administered daily at doses of 100 mg/kg/day, except Vioxx® which was administered at 50 mg/kg/day.
Gene expression profiles. After a period of time (e.g., four weeks) of compound/drug administration, the treated animals are necropsied. 120 tissues are dissected and rapidly snap-frozen for genomics analysis. Organ samples are isolated for histopathological examinations and for gene expression localizations, such as by in situ hybridization.
Gene expression profiles have been generated using the Affymetrix microarray technology. (i) RNA extraction and purification: Briefly, total RNA was obtained by acid guanidinium thiocyanate-phenol-chloroform extraction (Trizol®, Invitrogen Life Technologies, San Diego, Calif.) from each frozen tissue section and the total RNA was then purified on an affinity resin (Rneasy®, Qiagen) according to the manufacturer's instructions. Total RNA was quantified by the absorbance at λ=260 nm (A260 nm) and the purity was estimated by the ratio A260 nm/A280 nm. Integrity of the RNA molecules was confirmed by non-denaturing agarose gel electrophoresis. RNA was stored at −80° C. until analysis. […] (ii) GeneChip® experiment: All GeneChip® experiments were conducted in the Genomics Factory EU following recommendations by the manufacturer of the GeneChip® system (Affymetrix, Expression Analysis Technical Manual (Affymetrix, Santa Clara, Calif., 2005). Human U133A genome arrays were used for transcript expression analysis. Double stranded cDNA was synthesized with a starting amount of approximately 5 μg full-length total RNA using the Superscript Choice System (Invitrogen Life Technologies) in the presence of a T7-(dT) 24 DNA oligonucleotide primer. Following synthesis, the cDNA was purified by phenol/chloroform/isoamyl alcohol extraction and ethanol precipitation. The purified cDNA was then transcribed in vitro using the BioArray® High Yield RNA Transcript Labeling Kit (ENZO) in the presence of biotinylated ribonucleotides form biotin labelled cRNA. The labelled cRNA was then purified on an affinity resin (Rneasy, Qiagen), quantified and fragmented. An amount of approximately 10 μg labelled cRNA was hybridized for approximately 16 hours at 45° C. to an expression probe array. The array was then washed and stained twice with streptavidin-phycoerythrin (Molecular Probes) using the GeneChip Fluidics Workstation 400 (Affymetrix). The array was then scanned twice using a confocal laser scanner (GeneArray Scanner®, Agilent) resulting in one scanned image. This resulting “.dat-file” was processed using the MASS program (Affymetrix) into a “.cel-file”. The “.cel file” was then transferred to tan Affymetrix GeneChip Laboratory Information Management System (LIMS) database, which is connected to a UNIX Sun Solaris server through a network filing system that allows for the average intensities for all probes cells (CEL file) to be downloaded into an Oracle database (NPGN). Raw data was converted to expression levels using a “target intensity” of 100. […] The data were checked for quality and loaded in the GeneSpring® software versions 5.0 (Silicon Genetics, Calif., US) for statistical analysis.
Quality control analysis of transcriptome data: The following quality measures were analysed for each sample: Scaling factor, background, percent present calls, AFFX-GAPDH 3′: AFFX-GAPDH 5′-ratio, AFFX-GAPDH 3′ variance, AFFX-Beta-actin 3′: AFFX-Beta-actin 5′-ratio.

SMILES: Cc1ccc(-c2cc(C(F)(F)F)nn2-c2ccc(S(N)(=O)=O)cc2)cc1 [Celebrex]
- AIF1 (209901_x_at) avg fold change vs control: 1.5 fold
- AIF1 (213095_x_at) avg fold change vs control: 2.0 fold
- B2M (201891_s_at) avg fold change vs control: 1.3 fold
- BTN3A1 (207485_x_at) avg fold change vs control: 1.7 fold
- BTN3A3 (204821_at) avg fold change vs control: 1.6 fold
- C1S (208747_s_at) avg fold change vs control: 1.0 fold
- C2 (203052_at) avg fold change vs control: 1.1 fold
- C4A (208451_s_at) avg fold change vs control: 1.6 fold
- CASP1 (211367_s_at) avg fold change vs control: 1.2 fold
- CCL3 (205114_s_at) avg fold change vs control: 1.3 fold
- CCL5 (1405_i_at) avg fold change vs control: 0.9 fold
- CCL19 (210072_at) avg fold change vs control: 2.0 fold
- CCNB2 (202705_at) avg fold change vs control: 1.2 fold
- CD74 (209619_at) avg fold change vs control: 1.3 fold
- CX3CR1 (205898_at) avg fold change vs control: 1.1 fold
- DUSP6 (208893_s_at) avg fold change vs control: 1.2 fold
- ECGF1 (204858_s_at) avg fold change vs control: 1.1 fold
- FCGR3A (204006_s_at) avg fold change vs control: 1.3 fold
- GZMB (210164_at) avg fold change vs control: 0.9 fold
- HLA-DMA (217478_s_at) avg fold change vs control: 1.4 fold
- HLA-DQB1 (211656_x_at) avg fold change vs control: 1.6 fold
- HLA-DRB1 (215193_x_at) avg fold change vs control: 1.7 fold
- IRF1 (202531_at) avg fold change vs control: 1.1 fold
- IRF7 (208436_s_at) avg fold change vs control: 2.1 fold
- ISGF3G (203882_at) avg fold change vs control: 1.0 fold
- LAIR1 (208071_s_at) avg fold change vs control: 3.6 fold
- LRMP (204674_at) avg fold change vs control: 3.8 fold
- PLA2G4C (209785_s_at) avg fold change vs control: 1.4 fold
- TNFSF10 (202687_s_at) avg fold change vs control: 1.3 fold
- TNFSF10 (202688_at) avg fold change vs control: 1.3 fold
- 209813_x_at avg fold change vs control (2 weeks): 1.2 fold
- BCL3 (204908_s_at) avg fold change vs control (2 weeks): 1.0 fold
- BTN3A3 (38241_at) avg fold change vs control (2 weeks): 1.1 fold
- BTN3A3 (204820_s_at) avg fold change vs control (2 weeks): 1.3 fold
- C1QA (218232_at) avg fold change vs control (2 weeks): 1.5 fold
- C1QB (202953_at) avg fold change vs control (2 weeks): 1.1 fold
- C1R (212067_s_at) avg fold change vs control (2 weeks): 0.9 fold
- CASP1 (209970_x_at) avg fold change vs control (2 weeks): 1.2 fold
- CCL2 (216598_s_at) avg fold change vs control (2 weeks): 2.3 fold
- CCL8 (214038_at) avg fold change vs control (2 weeks): 1.3 fold
- CCL18 (209924_at) avg fold change vs control (2 weeks): 1.5 fold
- CD3D (213539_at) avg fold change vs control (2 weeks): 3.2 fold
- CD8A (205758_at) avg fold change vs control (2 weeks): 1.0 fold
- CD14 (201743_at) avg fold change vs control (2 weeks): 1.1 fold
- CLU (208791_at) avg fold change vs control (2 weeks): 0.8 fold
- CMAH (210571_s_at) avg fold change vs control (2 weeks): 1.0 fold
- CTSC (201487_at) avg fold change vs control (2 weeks): 1.3 fold
- CTSK (202450_s_at) avg fold change vs control (2 weeks): 1.0 fold
- CTSS (202902_s_at) avg fold change vs control (2 weeks): 1.2 fold
- CXCL9 (203915_at) avg fold change vs control (2 weeks): 1.4 fold
- CXCL10 (204533_at) avg fold change vs control (2 weeks): 1.1 fold
- CXCL11 (210163_at) avg fold change vs control (2 weeks): 3.7 fold
- CXCL11 (211122_s_at) avg fold change vs control (2 weeks): 1.6 fold
- CXCL12 (209687_at) avg fold change vs control (2 weeks): 1.1 fold
- CYBA (203028_s_at) avg fold change vs control (2 weeks): 1.2 fold
- CYBB (203923_s_at) avg fold change vs control (2 weeks): 1.2 fold
- CYP1B1 (202436_s_at) avg fold change vs control (2 weeks): 1.0 fold
- CYP3A5 (214234_s_at) avg fold change vs control (2 weeks): 1.3 fold
- CYP11B1 (214630_at) avg fold change vs control (2 weeks): 1.1 fold
- ECM1 (209365_s_at) avg fold change vs control (2 weeks): 0.9 fold
- F2RL1 (206429_at) avg fold change vs control (2 weeks): 1.1 fold
- F13A1 (203305_at) avg fold change vs control (2 weeks): 0.9 fold
- FCGR1A (214511_x_at) avg fold change vs control (2 weeks): 1.1 fold
- G1P2 (205483_s_at) avg fold change vs control (2 weeks): 1.4 fold
- HCA127 (220040_x_at) avg fold change vs control (2 weeks): 1.0 fold
- HCK (208018_s_at) avg fold change vs control (2 weeks): 1.4 fold
- HFE (210864_x_at) avg fold change vs control (2 weeks): 1.1 fold
- HFE (211329_x_at) avg fold change vs control (2 weeks): 0.7 fold
- HFE (211332_x_at) avg fold change vs control (2 weeks): 0.8 fold
- HFE (211863_x_at) avg fold change vs control (2 weeks): 0.9 fold
- HFE (211866_x_at) avg fold change vs control (2 weeks): 0.9 fold
- HHL (203020_at) avg fold change vs control (2 weeks): 1.4 fold
- HLA-A (211528_x_at) avg fold change vs control (2 weeks): 1.1 fold
- HLA-A (211529_x_at) avg fold change vs control (2 weeks): 1.2 fold
- HLA-A (211530_x_at) avg fold change vs control (2 weeks): 1.5 fold
- HLA-A (215313_x_at) avg fold change vs control (2 weeks): 1.2 fold
- HLA-B (208729_x_at) avg fold change vs control (2 weeks): 1.1 fold
- HLA-B (209140_x_at) avg fold change vs control (2 weeks): 1.1 fold
- HLA-B (211911_x_at) avg fold change vs control (2 weeks): 1.2 fold
- HLA-C (208812_x_at) avg fold change vs control (2 weeks): 1.2 fold
- HLA-C (214459_x_at) avg fold change vs control (2 weeks): 1.3 fold
- HLA-C (216526_x_at) avg fold change vs control (2 weeks): 1.2 fold
- HLA-DMB (203932_at) avg fold change vs control (2 weeks): 1.4 fold
- HLA-DQA1 (212671_s_at) avg fold change vs control (2 weeks): 2.1 fold
- HLA-DQB1 (209823_x_at) avg fold change vs control (2 weeks): 2.0 fold
- HLA-DQB1 (211654_x_at) avg fold change vs control (2 weeks): 2.0 fold
- HLA-DQB2 (212998_x_at) avg fold change vs control (2 weeks): 1.9 fold
- HLA-DRA (208894_at) avg fold change vs control (2 weeks): 1.3 fold
- HLA-DRA (210982_s_at) avg fold change vs control (2 weeks): 1.5 fold
- HLA-DRB3 (209312_x_at) avg fold change vs control (2 weeks): 1.5 fold
- HLA-DRB6 (217362_x_at) avg fold change vs control (2 weeks): 1.4 fold
- HLA-E (200905_x_at) avg fold change vs control (2 weeks): 1.1 fold
- HLA-E (217456_x_at) avg fold change vs control (2 weeks): 1.2 fold
- HLA-F (204806_x_at) avg fold change vs control (2 weeks): 1.2 fold
- HLA-F (221875_x_at) avg fold change vs control (2 weeks): 1.0 fold
- ICAM1 (202638_s_at) avg fold change vs control (2 weeks): 0.8 fold
- ICAM1 (215485_s_at) avg fold change vs control (2 weeks): 1.1 fold
